Results reported in patent US12390467B2, “Necroptosis inducers or autophagy inhibitors or a combination thereof” (The University of Toledo, priority 2018, dated 2025).
pIC50: −log10 of the molar value.

Legend:
Assay type in all cases: cell-based
[1] = system: BT-20 and MDA-MB468 cells; test: Mitochondrial membrane potential assay (MitoTracker Red / Alexa Fluor 488 annexin V); details: 0.5, 1, and 2 μM
Protocol: This assay is a direct measure of the structural integrity of mitochondria. Cells were seeded as indicated in the cell cycle assay and incubated for 24 h at 37° C. The next day, TPH104 (0.5, 1, 2 μM) or vehicle and incubated with the cells for 12 h. The cells were harvested, washed 2× with PBS, counted, and their concentrations were adjusted to 5×10^6 cells/well in the culture medium. Subsequently, 4 μl of the 10 μM solution of mitotracker red was added to each 1 ml aliquot of cells and incubated with the cells for 30 minutes at 37° C. The cells were washed 2× with PBS and re-suspended in the 100 μl of 1× annexin-binding buffer. The cells were stained with Alexa Fluor for 15 minutes and analyzed using flow cytometry as described in the manufacturer protocol (Thermofisher, USA).

TNBC cell lines = test: Cytotoxicity screening (MTT), TNBC cell lines overall; details: TNBC cell lines overall
Text: To this end, several commercial databases were searched, and 17 similar molecules from the VitasM database were retrieved with considerable structural diversity in terms of the substitution on the aryl ring A attached to the thienopyrimidine scaffold and aryl ring B attached to hydrazino moiety. Further, the biological evaluation of the 17 molecules sheds light on the structural features deemed important for the selective cytotoxicity shown by this class of molecules. With this understanding, the 17 molecules were subjected to a screening protocol comprising of two TNBC, two non-TNBC, and one normal cell lines.
(§1) The following cancer and non-cancer cell lines were used in the initial cytotoxicity screening of the TPH104 compounds: triple negative breast cancer (TNBC): MDA-MB468, MDA-MB 231, and BT-20; non-TNBC: MCF-7 and ZR-75-1; ovarian: Ov2008; prostate: DU145; colon: HCT-116, S1, and LOVO; lung: H460; normal kidney: HEK-293; normal breast: HMEC; and normal colon: CRL-1459. All cells were cultured in Dulbecco's modified Eagle medium (DMEM), supplemented with 10% fetal bovine serum (FBS), and 1% penicillin/streptomycin (P/S). Cells were allowed to grow as adherent monolayers in T25 flasks in a humidified incubator with 5% CO2 at 37° C. for a period of 24 h, unless otherwise specified for certain experiments.
(§2) The MTT assay was used to determine the cytotoxicity of all of the compounds. Briefly, in a 96-well flat-bottom cell culture plate, the cells were seeded at a density between 3-5×10^3 cells/well (180 μl in each well) and incubated for 24 h (a hemocytometer was used for cell counting). The next day, the cells were incubated with different concentrations of the nine compounds (0, 0.1, 0.3, 1, 3, 10, 30, and 100 μM) for 72 h. After 72 h, 20 μl of 5 mg/ml of 3-(4,5-dimethylthiazol-2-yl)-2,5-diphenyltetrazolium bromide (MTT) was added to the plate and incubated with the cells for 3 h at 37° C. In this experiment, the living cells will reduce the soluble MTT dye to non-soluble purple formazan crystals. Following incubation, the media containing MTT removed via suction and 100 μL of 100% dimethyl sulfoxide (DMSO) was added to dissolve the formazan crystals. Subsequently, the plate was shaken for 2 minutes and the absorbance was measured at a wavelength of 570 nm using a SpectraMax iD3 Multi-Mode Microplate Reader (Molecular Devices, Sunnyvale, CA). The IC50 values of each compound were calculated and used to determine the selectivity ratio (IC50 in normal cells/IC50 in cancer cells) of each compound as previously described. Based on the results obtained from these experiments, the compound TPH104, which had the lowest IC50 value, was selected for further experiments.

[2] = system: S1M180 and H460-MX20 ABCG2-overexpressing cells vs parental S1 and H460; test: Collateral sensitivity in ABCG2-overexpressing versus parental cells; details: 0.3, 3, and 30 μM
Text: The data is shown as means±SEM of three independent experiments.

[3] = system: MDA-MB468, BT-20, and MDA-MB231; test: Trans-well migration assay; details: 1 μM or 10 μM, 24 h
Protocol: This assay was used to assess the migration and invasiveness of TNBC cells. In this assay, 24 well-plates with 24 well inserts of 8 μm pore size, (Corning, Cambridge, MA, USA), were used. The inserts were pre-coated with growth-factor reduced matrigel (1:40) and added to each well, forming two chambers (upper and lower). Briefly, cells were seeded at a density of 10,000 cells/well in the upper chamber of the inserts. The lower chamber was filled with cell-free DMEM medium supplemented with 10% FBS and 1% P/S. The next day, cells were incubated with 0.1, 1, or 10 μM of TPH104 or vehicle for 24 h to allow the cells to migrate through the porous membrane into the lower chamber. Following incubation, cotton swabs were used to wipe away the non-migrated, stationary cells in the upper chamber. The migrated cells were fixed with 100% methanol and stained with 0.1% crystal violet dye. The migrated cells were then viewed, pictured and counted using an EVOS-FLC microscope as previously reported.

[4] = system: MDA-MB231 (TNBC cell line); test: MTT cell viability assay, MDA-MB231; details: Homo sapiens, MDA-MB-231, 72 h, read-out: IC50 ± SD, MDA-MB231
Protocol: as §1, §2

[5] = system: RAW264.7 macrophage cells; test: Optically activated migration of RAW264.7 cells; details: 10 μM
Protocol: FIGS. 13A-13B: The in vitro effect of TPH104 on the migratory and invasive properties of MDA-MB231 TNBC cells using the wound healing assay. […] Control cells were incubated with 11-cis retinal (50 μM) for 5 minutes in the dark. A confined optical input of 445 nm was placed in-front of cells using a user-defined region of interest (ROI) and optically activated (OA) continuously in the direction of cell migration pathway for 20 minutes (OA=blue box). Cells were incubated with 10 μM of TPH104 for 30 minutes, followed by incubation with 11-cis retinal (50 μM) for 5 minutes in the dark. Scale=5 μm.
To further confirm the anti-migratory effect of TPH104, RAW264.7 macrophage cells were incubated with 10 μM TPH104 and its effect on Gai-coupled-GPCR activation was determined.

## COc1ccc(O)c(/C=N/Nc2ncnc3scc(-c4ccc(C)cc4)c23)c1 [TPH104]
[1]
  mitochondrial membrane potential: did not significantly alter
[1]; flow cytometry
  number of cells in the second quadrant (Q2), apoptotic cells: did not significantly alter
TNBC cell lines
  pIC50: > 6.00
[2]
  ABCG2 transporter mediated multidrug resistance, collateral sensitivity: collateral sensitivity
[3]
  migration of TNBC cells: significantly decreased
[4]
  pIC50: 6.72
[5]
  migration of RAW264.7 cells: significantly decreased
